Data published in patent US11130756B2, “[1,2,4]Triazolo[4,3-A]pyridinyl substituted indole compounds” (BRISTOL-MYERS SQUIBB COMPANY, priority 2017, dated 2021).

How the values were obtained:
Type in all cases: cell-based
human TLR7 = target: T1, human TLR7 (Homo sapiens, UniProt Q9NYK1); test: TLR7 inhibition reporter assay (HEK-Blue, SEAP); conditions: HEK-Blue cells overexpressing human TLR7, gardiquimod 7.5 μM, 22 hour incubation
T1 construct: host or cells: HEK-Blue cells
T1 sequence (Q9NYK1 27-1049): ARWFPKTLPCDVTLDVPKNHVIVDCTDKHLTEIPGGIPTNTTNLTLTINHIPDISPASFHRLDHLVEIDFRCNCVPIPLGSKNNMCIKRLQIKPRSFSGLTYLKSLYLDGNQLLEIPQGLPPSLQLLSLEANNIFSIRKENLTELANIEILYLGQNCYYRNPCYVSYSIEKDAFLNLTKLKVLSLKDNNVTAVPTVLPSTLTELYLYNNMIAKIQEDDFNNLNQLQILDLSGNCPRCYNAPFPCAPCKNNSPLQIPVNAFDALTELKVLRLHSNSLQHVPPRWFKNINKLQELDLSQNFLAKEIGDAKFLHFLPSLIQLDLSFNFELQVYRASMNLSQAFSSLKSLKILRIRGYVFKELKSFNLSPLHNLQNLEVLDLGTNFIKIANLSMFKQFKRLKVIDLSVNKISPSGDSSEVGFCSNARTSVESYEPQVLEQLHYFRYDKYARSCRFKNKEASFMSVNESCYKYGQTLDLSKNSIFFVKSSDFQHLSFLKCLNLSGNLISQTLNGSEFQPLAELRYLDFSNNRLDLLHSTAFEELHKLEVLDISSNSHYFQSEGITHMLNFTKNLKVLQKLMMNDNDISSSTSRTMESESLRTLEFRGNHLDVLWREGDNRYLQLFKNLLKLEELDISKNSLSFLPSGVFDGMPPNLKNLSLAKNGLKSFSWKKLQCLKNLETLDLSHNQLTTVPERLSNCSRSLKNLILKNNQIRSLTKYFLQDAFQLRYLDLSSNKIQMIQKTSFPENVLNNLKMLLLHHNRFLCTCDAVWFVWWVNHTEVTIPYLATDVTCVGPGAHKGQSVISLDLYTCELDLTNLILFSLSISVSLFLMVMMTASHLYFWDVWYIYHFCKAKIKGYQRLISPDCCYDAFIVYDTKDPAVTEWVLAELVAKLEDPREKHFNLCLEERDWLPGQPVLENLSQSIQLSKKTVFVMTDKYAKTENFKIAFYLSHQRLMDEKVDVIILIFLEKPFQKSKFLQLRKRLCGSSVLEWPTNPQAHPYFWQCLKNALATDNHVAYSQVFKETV
Procedure, shortened: (§1)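 Dose–response from 0.05 nM to 50 μM was run in HEK-Blue human TLR7, TLR8 and TLR9 reporter cells. After 30 min at room temperature with compound, ligand was added (TLR7 gardiquimod 7.5 μM; TLR8 R848 15.9 μM; TLR9 ODN2006 5 nM) and SEAP measured next day, at 22 h.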

human TLR9 = target: T2, human TLR9 (Homo sapiens, UniProt Q9NR96); test: TLR9 inhibition reporter assay (HEK-Blue, SEAP); conditions: HEK-Blue cells overexpressing human TLR9, ODN2006 5 nM, 22 hour incubation
T2 construct: host or cells: HEK-Blue cells
T2 sequence (Q9NR96 26-1032): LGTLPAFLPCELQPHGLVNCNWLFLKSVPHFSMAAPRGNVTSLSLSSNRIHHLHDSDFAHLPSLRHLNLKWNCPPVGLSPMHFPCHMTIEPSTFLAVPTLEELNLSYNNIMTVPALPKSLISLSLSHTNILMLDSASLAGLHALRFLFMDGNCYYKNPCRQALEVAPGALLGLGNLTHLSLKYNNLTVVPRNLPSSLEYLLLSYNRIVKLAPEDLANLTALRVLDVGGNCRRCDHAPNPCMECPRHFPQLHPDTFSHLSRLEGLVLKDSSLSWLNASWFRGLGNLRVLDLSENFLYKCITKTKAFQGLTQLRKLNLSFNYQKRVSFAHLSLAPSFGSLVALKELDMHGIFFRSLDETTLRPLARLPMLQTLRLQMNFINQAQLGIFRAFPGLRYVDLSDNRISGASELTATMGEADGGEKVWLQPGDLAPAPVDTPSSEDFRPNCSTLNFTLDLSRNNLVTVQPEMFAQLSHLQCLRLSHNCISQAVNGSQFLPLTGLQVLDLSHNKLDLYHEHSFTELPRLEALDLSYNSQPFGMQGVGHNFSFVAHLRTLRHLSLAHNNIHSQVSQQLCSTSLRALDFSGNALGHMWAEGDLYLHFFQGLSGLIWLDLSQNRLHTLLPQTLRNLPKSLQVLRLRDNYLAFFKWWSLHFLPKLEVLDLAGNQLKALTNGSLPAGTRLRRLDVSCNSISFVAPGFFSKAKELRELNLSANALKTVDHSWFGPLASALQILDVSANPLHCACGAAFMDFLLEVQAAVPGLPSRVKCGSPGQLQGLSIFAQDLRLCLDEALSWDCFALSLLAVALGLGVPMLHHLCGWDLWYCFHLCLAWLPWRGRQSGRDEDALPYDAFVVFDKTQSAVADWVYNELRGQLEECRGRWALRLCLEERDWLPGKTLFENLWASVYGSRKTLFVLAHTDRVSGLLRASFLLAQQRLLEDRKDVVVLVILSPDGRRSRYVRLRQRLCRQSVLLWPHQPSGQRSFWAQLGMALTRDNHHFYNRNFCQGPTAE
Procedure, shortened: as §1

human TLR8 = target: T3, human TLR8 (Homo sapiens, UniProt Q9NR97); test: TLR8 inhibition reporter assay (HEK-Blue, SEAP); conditions: HEK-Blue cells overexpressing human TLR8, R848 15.9 μM, 22 hour incubation
T3 construct: host or cells: HEK-Blue cells
T3 sequence (Q9NR97 27-1041): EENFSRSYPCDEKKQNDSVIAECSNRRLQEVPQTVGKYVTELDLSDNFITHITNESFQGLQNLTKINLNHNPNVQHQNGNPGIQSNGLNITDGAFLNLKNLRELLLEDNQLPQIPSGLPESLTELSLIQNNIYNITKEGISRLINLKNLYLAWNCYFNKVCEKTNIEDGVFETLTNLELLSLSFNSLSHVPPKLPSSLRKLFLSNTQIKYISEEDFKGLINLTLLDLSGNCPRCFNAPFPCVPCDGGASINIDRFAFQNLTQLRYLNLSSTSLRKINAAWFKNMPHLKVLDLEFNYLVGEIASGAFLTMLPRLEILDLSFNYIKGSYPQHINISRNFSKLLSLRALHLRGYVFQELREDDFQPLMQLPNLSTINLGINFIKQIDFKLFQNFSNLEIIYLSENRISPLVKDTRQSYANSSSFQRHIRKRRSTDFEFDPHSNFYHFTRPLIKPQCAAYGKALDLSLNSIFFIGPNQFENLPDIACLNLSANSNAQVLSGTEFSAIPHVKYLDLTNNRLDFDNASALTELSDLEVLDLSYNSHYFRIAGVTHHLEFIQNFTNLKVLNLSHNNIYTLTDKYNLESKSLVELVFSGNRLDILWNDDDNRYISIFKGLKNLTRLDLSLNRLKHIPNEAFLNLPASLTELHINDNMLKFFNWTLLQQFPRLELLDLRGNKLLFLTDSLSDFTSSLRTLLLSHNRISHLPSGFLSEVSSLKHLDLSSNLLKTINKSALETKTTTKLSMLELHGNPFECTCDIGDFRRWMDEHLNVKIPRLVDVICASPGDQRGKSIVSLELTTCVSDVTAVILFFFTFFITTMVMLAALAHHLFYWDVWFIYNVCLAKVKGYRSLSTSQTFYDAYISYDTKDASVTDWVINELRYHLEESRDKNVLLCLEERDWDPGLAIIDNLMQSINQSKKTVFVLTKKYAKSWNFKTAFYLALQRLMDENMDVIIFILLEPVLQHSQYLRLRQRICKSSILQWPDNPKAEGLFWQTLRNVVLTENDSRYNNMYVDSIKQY
Procedure, shortened: as §1

| Compound | IC50 (human TLR7) [nM] | IC50 (human TLR9) [nM] | IC50 (human TLR8) [nM] |
| --- | --- | --- | --- |
| Cc1c(-c2[nH]c3ccc(C4CCN(CCN5CCCS5(=O)=O)CC4)cc3c2C(C)C)cn2cnnc2c1C [Example 52, 2-(2-(4-(2-(7,8-dimethyl-[1,2,4]triazolo[4,3-a]pyridin-6-yl)-3-isopropyl-1H-indol-5-yl)piperidin-1-yl)ethyl)isothiazolidine 1,1-dioxide] | 1.5 | 1280 | 5.8 |
| Cc1c(-c2[nH]c3ccc(C4CCN(CCN5CCCS5(=O)=O)CC4)cc3c2C(C)C)cn2cnnc2c1Cl [Example 53, 2-(2-(4-(2-(8-chloro-7-methyl-[1,2,4]triazolo[4,3-a]pyridin-6-yl)-3-isopropyl-1H-indol-5-yl)piperidin-1-yl)ethyl) isothiazolidine 1,1-dioxide] | 0.9 | 565 | 10.1 |
| COc1cc(-c2[nH]c3ccc(C4CCN(CC(=O)N(C)C)CC4)cc3c2C(C)C)cn2cnnc12 [Example 54, 2-(4-(3-isopropyl-2-(8-methoxy-[1,2,4]triazolo[4,3-a]pyridin-6-yl)-1H-indol-5-yl)piperidin-1-yl)-N,N-dimethylacetamide] | 1.9 | 99 | 19.5 |
| COc1cc(-c2[nH]c3ccc(C4CCN(CCCC(F)(F)F)CC4)cc3c2C(C)C)cn2cnnc12 [Example 55, 6-(3-isopropyl-5-(1-(4,4,4-trifluorobutyl)piperidin-4-yl)-1H-indol-2-yl)-8-methoxy-[1,2,4]triazolo[4,3-a] pyridine] | 0.9 | 1100 | 10.6 |
| Cc1c(-c2[nH]c3ccc(C4CCN(CCN5CCOC5=O)CC4)cc3c2C(C)C)cn2cnnc2c1C [Example 56, 3-(2-(4-(2-(7,8-dimethyl-[1,2,4]triazolo[4,3-a]pyridin-6-yl)-3-isopropyl-1H-indol-5-yl)piperidin-1-yl)ethyl)oxazolidin-2-one] | 0.5 | 196 | 7.9 |
| Cc1c(-c2[nH]c3ccc(C4CCN(CCN5CCCC5=O)CC4)cc3c2C(C)C)cn2cnnc2c1C [Example 57, 1-(2-(4-(2-(7,8-dimethyl-[1,2,4]triazolo[4,3-a]pyridin-6-yl)-3-isopropyl-1H-indol-5-yl)piperidin-1-yl)ethyl) pyrrolidin-2-one] | 5 | 1300 | 13 |
| Cc1cc(-c2[nH]c3ccc(C4CCN(CC(C)(C)O)CC4)cc3c2C(C)C)cn2cnnc12 [Example 58, 1-(4-(3-isopropyl-2-(8-methyl-[1,2,4]triazolo[4,3-a]pyridin-6-yl)-1H-indol-5-yl)piperidin-1-yl)-2-methylpropan-2-ol] | 0.8 | 1750 | 0.9 |
| Cc1cc(-c2[nH]c3ccc(C4CCN(CC(C)(C)O)CC4)cc3c2C(C)C)c(C)n2cnnc12 [Example 59, 1-(4-(2-(5,8-dimethyl-[1,2,4]triazolo[4,3-a]pyridin-6-yl)-3-isopropyl-1H-indol-5-yl)piperidin-1-yl)-2-methylpropan-2-ol] | 81.7 | 3430 | 3.1 |
| Cc1c(-c2[nH]c3ccc(C4CCN(CC(C)(C)O)CC4)cc3c2C(C)C)cn2cnnc2c1C [Example 60, 1-(4-(2-(7,8-dimethyl-[1,2,4]triazolo[4,3-a]pyridin-6-yl)-3-isopropyl-1H-indol-5-yl)piperidin-1-yl)-2-methylpropan-2-ol] | 1.7 | 2900 | 4.3 |
| Cc1c(-c2[nH]c3ccc(C4CCN(CC(C)(C)O)CC4)cc3c2C(C)C)cn2cnnc2c1Cl [Example 61, 1-(4-(2-(8-chloro-7-methyl-[1,2,4]triazolo [4,3-a]pyridin-6-yl)-3-isopropyl-1H-indol-5-yl)piperidin-1-yl)-2-methylpropan-2-ol] | 0.9 | 2270 | 4.6 |
| Cc1cc(-c2[nH]c3ccc(C4CCN(C5COC5)CC4)cc3c2C(C)C)cn2cnnc12 [Example 63, 6-(3-isopropyl-5-(1-(oxetan-3-yl)piperidin-4-yl)-1H-indol-2-yl)-8-methyl-[1,2,4]triazolo[4,3-a]pyridine] | 1.7 | 10800 | 7.6 |
| CC(C)c1c(-c2ccc3nncn3c2)[nH]c2ccc(C3CCN(C4CCOCC4)CC3)cc12 [Example 64, 6-(3-isopropyl-5-(1-(tetrahydro-2H-pyran-4-yl)piperidin-4-yl)-1H-indol-2-yl)-[1,2,4]triazolo[4,3-a]pyridine] | 24.7 | 677 | 147 |
| CC(C)c1c(-c2ccc3nncn3c2)[nH]c2ccc(C3CCN(C4COC4)CC3)cc12 [Example 65, 6-(3-isopropyl-5-(1-(oxetan-3-yl)piperidin-4-yl)-1H-indol-2-yl)-[1,2,4]triazolo[4,3-a]pyridine] | 21.8 | 15100 | 341 |
| Cc1cc2nncn2cc1-c1[nH]c2ccc(C3CCN(C4COC4)CC3)cc2c1C(C)C [Example 66, 6-(3-isopropyl-5-(1-(oxetan-3-yl)piperidin-4-yl)-1H-indol-2-yl)-7-methyl-[1,2,4]triazolo[4,3-a]pyridine] | 55.5 | 18600 | 1030 |
